{"source": "patent US20230218624A1", "about": "(Urovant Sciences GmbH, priority 2017, published 2023)", "key": {"QTc interval": {"tested_on": "QTc interval", "assay": "Thorough QT study, single oral doses"}, "β1-AR": {"biological_target": "T1, β1-AR (Homo sapiens, UniProt P08588)", "T1 construct": "expressed in transfected cells; membranes prepared from them", "T1 sequence (P08588 whole entry)": "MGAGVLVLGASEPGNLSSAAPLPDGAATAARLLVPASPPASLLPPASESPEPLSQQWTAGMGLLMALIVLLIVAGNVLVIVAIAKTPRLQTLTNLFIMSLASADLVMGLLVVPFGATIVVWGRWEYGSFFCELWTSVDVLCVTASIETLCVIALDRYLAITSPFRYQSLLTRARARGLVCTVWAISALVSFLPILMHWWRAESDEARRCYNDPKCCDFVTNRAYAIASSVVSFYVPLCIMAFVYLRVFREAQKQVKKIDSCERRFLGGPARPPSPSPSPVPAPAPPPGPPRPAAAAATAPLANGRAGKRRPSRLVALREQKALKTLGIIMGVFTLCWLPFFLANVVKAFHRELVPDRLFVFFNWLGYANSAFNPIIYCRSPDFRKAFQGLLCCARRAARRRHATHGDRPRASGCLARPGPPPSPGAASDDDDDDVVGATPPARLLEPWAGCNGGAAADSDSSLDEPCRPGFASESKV", "assay": "Competition binding assay, membranes with recombinant β1-AR"}, "[1]": {"assay": "PK in patients with renal impairment", "conditions": "for AUC0-inf, geometric least squares mean / Apparent terminal t1/2, geometric mean (% geometric CV) / CL/F, geometric least squares mean / CLR, geometric mean (% geometric CV) / Cmax, geometric least squares mean / Fe[urine]48 hr, geometric mean (% geometric CV) / Tmax (median): single dose 100 mg", "source_text": "The relationship between clearance and renal function was modeled using linear regression."}, "[2]": {"assay": "Dose-Cmax and dose-AUC models and simulations from Phase 1 data", "parameters": "species or system human", "experimental": "Exposure, and therefore risk of adverse-events can be further reduced with a 50 mg dose."}, "[3]": {"conditions": "healthy matched control subjects"}}, "note": "Several values for one entry are separate records, joined by “and”; a condition that tells them apart may be missing. Equal entries are not always repeated. Marks after values point to notes of the source that are not given here.", "data": [{"molecule": "O=C(Nc1ccc(C[C@@H]2CC[C@H]([C@H](O)c3ccccc3)N2)cc1)[C@@H]1CCc2nccc(=O)n21", "note": "[Vibegron, (6S)—N-[4-[[(2S,5R)-5-[(R)-hydroxy(phenyl)methyl]pyrrolidin-2-yl]methyl]phenyl]-4-oxo-7,8-dihydro-6H-pyrrolo[1,2-a]pyrimidine-6-carboxamide]", "values": [{"measurement": "QTcF change from baseline, LS mean", "setting": "QTc interval; single dose 200 mg, 6 hour", "value": -6.89, "unit": "ms"}, {"measurement": "QTcF LS mean difference from placebo", "setting": "QTc interval; single dose 200 mg, 8 hour", "value": -1.24, "unit": "ms"}, {"measurement": "QTcF change from baseline, LS mean", "setting": "QTc interval; single dose 200 mg, 8 hour", "value": -9.59, "unit": "ms"}, {"measurement": "QTcF LS mean difference from placebo", "setting": "QTc interval; single dose 200 mg, 10 hour", "value": -2.67, "unit": "ms"}, {"measurement": "QTcF change from baseline, LS mean", "setting": "QTc interval; single dose 200 mg, 10 hour", "value": -8.82, "unit": "ms"}, {"measurement": "QTcF LS mean difference from placebo", "setting": "QTc interval; single dose 200 mg, 12 hour", "value": -3.72, "unit": "ms"}, {"measurement": "QTcF change from baseline, LS mean", "setting": "QTc interval; single dose 200 mg, 12 hour", "value": -6.82, "unit": "ms"}, {"measurement": "QTcF LS mean difference from placebo", "setting": "QTc interval; single dose 200 mg, 23.5 hour", "value": 0.38, "unit": "ms"}, {"measurement": "QTcF change from baseline, LS mean", "setting": "QTc interval; single dose 200 mg, 23.5 hour", "value": -2.15, "unit": "ms"}, {"measurement": "Maximum mean placebo corrected change from baseline RR interval", "setting": "QTc interval; single dose 400 mg", "value": -162.45, "unit": "ms"}, {"measurement": "Maximum mean placebo corrected change from baseline diastolic BP", "setting": "QTc interval; single dose 400 mg", "value": 3.99, "unit": "mmHg"}, {"measurement": "Maximum mean placebo corrected change from baseline systolic BP", "setting": "QTc interval; single dose 400 mg", "value": 3.97, "unit": "mmHg"}, {"measurement": "QTcF LS mean difference from placebo", "setting": "QTc interval; single dose 400 mg, 0.5 hour", "value": 3.37, "unit": "ms"}, {"measurement": "QTcF change from baseline, LS mean", "setting": "QTc interval; single dose 400 mg, 0.5 hour", "value": 2.37, "unit": "ms"}, {"measurement": "QTcF change from baseline, LS mean", "setting": "QTc interval; single dose 400 mg, 1 hour", "value": 4.49, "unit": "ms"}, {"measurement": "QTcF LS mean difference from placebo", "setting": "QTc interval; single dose 400 mg, 1 hour (maximum)", "value": "4.60 (2.71, 6.48) msec and 4.60 msec"}, {"measurement": "QTcF LS mean difference from placebo", "setting": "QTc interval; single dose 400 mg, 2 hour", "value": 0.81, "unit": "ms"}, {"measurement": "QTcF change from baseline, LS mean", "setting": "QTc interval; single dose 400 mg, 2 hour", "value": 0.73, "unit": "ms"}, {"measurement": "QTcF LS mean difference from placebo", "setting": "QTc interval; single dose 400 mg, 3 hour", "value": -1.04, "unit": "ms"}, {"measurement": "QTcF change from baseline, LS mean", "setting": "QTc interval; single dose 400 mg, 3 hour", "value": -0.30, "unit": "ms"}, {"measurement": "QTcF LS mean difference from placebo", "setting": "QTc interval; single dose 400 mg, 4 hour", "value": -2.96, "unit": "ms"}, {"measurement": "QTcF change from baseline, LS mean", "setting": "QTc interval; single dose 400 mg, 4 hour", "value": -2.53, "unit": "ms"}, {"measurement": "QTcF LS mean difference from placebo", "setting": "QTc interval; single dose 400 mg, 6 hour", "value": -2.70, "unit": "ms"}, {"measurement": "QTcF change from baseline, LS mean", "setting": "QTc interval; single dose 400 mg, 6 hour", "value": -8.33, "unit": "ms"}, {"measurement": "QTcF LS mean difference from placebo", "setting": "QTc interval; single dose 400 mg, 8 hour", "value": -3.24, "unit": "ms"}, {"measurement": "QTcF change from baseline, LS mean", "setting": "QTc interval; single dose 400 mg, 8 hour", "value": -11.60, "unit": "ms"}, {"measurement": "QTcF LS mean difference from placebo", "setting": "QTc interval; single dose 400 mg, 10 hour", "value": -4.14, "unit": "ms"}, {"measurement": "QTcF change from baseline, LS mean", "setting": "QTc interval; single dose 400 mg, 10 hour", "value": -10.29, "unit": "ms"}, {"measurement": "QTcF LS mean difference from placebo", "setting": "QTc interval; single dose 400 mg, 12 hour", "value": -4.00, "unit": "ms"}, {"measurement": "QTcF change from baseline, LS mean", "setting": "QTc interval; single dose 400 mg, 12 hour", "value": -7.10, "unit": "ms"}, {"measurement": "QTcF LS mean difference from placebo", "setting": "QTc interval; single dose 400 mg, 23.5 hour", "value": -0.34, "unit": "ms"}, {"measurement": "QTcF change from baseline, LS mean", "setting": "QTc interval; single dose 400 mg, 23.5 hour", "value": -2.87, "unit": "ms"}, {"measurement": "effect on QTc or blood pressure", "setting": "QTc interval; thorough QT study", "value": "no clinically meaningful effect on QTc or blood pressure"}, {"measurement": "binding to β1-AR", "setting": "β1-AR", "value": "does not bind"}, {"measurement": "AUC0-inf higher than healthy matched controls", "setting": "[1]; mild renal impairment", "value": 49, "unit": "%"}, {"measurement": "CLR reduced compared to healthy matched controls", "setting": "[1]; mild renal impairment", "value": 39, "unit": "%"}, {"measurement": "Cmax higher than healthy matched controls", "setting": "[1]; mild renal impairment", "value": 96, "unit": "%"}, {"measurement": "AUC0-inf higher than healthy matched controls", "setting": "[1]; moderate renal impairment", "value": 106, "unit": "%"}, {"measurement": "CLR reduced compared to healthy matched controls", "setting": "[1]; moderate renal impairment", "value": 65, "unit": "%"}, {"measurement": "Cmax higher than healthy matched controls", "setting": "[1]; moderate renal impairment", "value": 68, "unit": "%"}, {"measurement": "AUC0-inf higher than healthy matched controls", "setting": "[1]; severe renal impairment", "value": 83, "unit": "%"}, {"measurement": "CLR reduced compared to healthy matched controls", "setting": "[1]; severe renal impairment", "value": 82, "unit": "%"}, {"measurement": "Cmax higher than healthy matched controls", "setting": "[1]; severe renal impairment", "value": 42, "unit": "%"}, {"measurement": "AUC0-inf, geometric least squares mean", "setting": "[1]; [3]", "value": 1540, "unit": "ng·h/mL"}, {"measurement": "Apparent terminal t1/2, geometric mean (% geometric CV)", "setting": "[1]; [3]", "value": "98.8 (13.9) hr"}, {"measurement": "CL/F, geometric least squares mean", "setting": "[1]; [3]", "value": 64.9, "unit": "L/h"}, {"measurement": "CLR, geometric mean (% geometric CV)", "setting": "[1]; [3]", "value": "10.4 (20.2) L/hr"}, {"measurement": "Cmax, geometric least squares mean", "setting": "[1]; [3]", "value": 107, "unit": "ng/mL"}, {"measurement": "Fe[urine]48 hr, geometric mean (% geometric CV)", "setting": "[1]; [3]", "value": "7.9% and 7.9 (43.0) %"}, {"measurement": "Apparent terminal t1/2, geometric mean (% geometric CV)", "setting": "[1]; mild renal impairment", "value": "96.2 (11.5) hr"}, {"measurement": "CL/F, geometric least squares mean", "setting": "[1]; mild renal impairment", "value": 43.6, "unit": "L/h"}, {"measurement": "CLR, geometric mean (% geometric CV)", "setting": "[1]; mild renal impairment", "value": "6.3 (31.1)^c L/hr"}, {"measurement": "Cmax, geometric least squares mean", "setting": "[1]; mild renal impairment", "value": 210, "unit": "ng/mL"}, {"measurement": "Fe[urine]48 hr, geometric mean (% geometric CV)", "setting": "[1]; mild renal impairment", "value": "8.5% and 8.5 (43.9)^c %"}, {"measurement": "AUC0-inf, geometric least squares mean", "setting": "[1]; moderate renal impairment", "value": 3170, "unit": "ng·h/mL"}, {"measurement": "Apparent terminal t1/2, geometric mean (% geometric CV)", "setting": "[1]; moderate renal impairment", "value": "108 (21.0) hr"}, {"measurement": "CL/F, geometric least squares mean", "setting": "[1]; moderate renal impairment", "value": 31.5, "unit": "L/h"}, {"measurement": "CLR, geometric mean (% geometric CV)", "setting": "[1]; moderate renal impairment", "value": "3.6 (34.5) L/hr"}, {"measurement": "Fe[urine]48 hr, geometric mean (% geometric CV)", "setting": "[1]; moderate renal impairment", "value": "5.5% and 5.5 (53.2) %"}, {"measurement": "Tmax (median)", "setting": "[1]; moderate renal impairment", "value": 78, "unit": "min"}, {"measurement": "AUC0-inf, geometric least squares mean", "setting": "[1]; severe renal impairment", "value": 2820, "unit": "ng·h/mL"}, {"measurement": "Apparent terminal t1/2, geometric mean (% geometric CV)", "setting": "[1]; severe renal impairment", "value": "131 (10.0) hr"}, {"measurement": "CL/F, geometric least squares mean", "setting": "[1]; severe renal impairment", "value": 35.5, "unit": "L/h"}, {"measurement": "CLR, geometric mean (% geometric CV)", "setting": "[1]; severe renal impairment", "value": "1.9 (30.9) L/hr"}, {"measurement": "Cmax, geometric least squares mean", "setting": "[1]; severe renal impairment", "value": 152, "unit": "ng/mL"}, {"measurement": "Fe[urine]48 hr, geometric mean (% geometric CV)", "setting": "[1]; severe renal impairment", "value": "2.1% and 2.1 (57.6) %"}, {"measurement": "Tmax (median)", "setting": "[1]; severe renal impairment", "value": 30, "unit": "min"}, {"measurement": "CL/F increase per one mL/min/1.73 m^2 increase in eGFR", "setting": "[1]; slope of linear regression", "value": "~0.8", "unit": "%"}, {"measurement": "higher Cmax in elderly and females than healthy young males", "setting": "[2]", "value": "50-70%"}, {"measurement": "reduction in Cmax", "setting": "[2]; dose decreased from 100 mg to 75 mg", "value": "~40", "unit": "%"}, {"measurement": "AUC of 75 mg lower than 200 mg single dose", "setting": "[2]; estimation", "value": "~2", "unit": "fold"}, {"measurement": "AUC of 75 mg lower than 400 mg single dose", "setting": "[2]; estimation", "value": "~6", "unit": "fold"}, {"measurement": "Cmax of 75 mg lower than 200 mg single dose", "setting": "[2]; estimation", "value": "approximately 3.3 fold"}, {"measurement": "Cmax of 75 mg lower than 400 mg single dose", "setting": "[2]; estimation", "value": "~9.2", "unit": "fold"}, {"measurement": "increase in Cmax", "setting": "[2]; increase in dose from 50 to 100 mg", "value": "~3", "unit": "fold"}, {"measurement": "higher exposure", "setting": "[2]; subjects receiving a potent CYP3A/P-gp inhibitor", "value": "~2", "unit": "fold"}, {"measurement": "mean increase in AUC vs normal renal function", "setting": "[2]; subjects with moderate renal impairment", "value": 1.6, "unit": "fold"}]}]}
